Data: paper PMC8312697, “Mechanistic Investigations Support Liver Safety of Ubrogepant” (Toxicological Sciences, 2020)
≈ marks a conversion by molar mass, not a printed value. Read-outs that look alike come from different tables or passages of the source.

Columns and labels:
HepG2 cells = assay: Oxidative stress assay (ROS, DHE fluorescence); assay type: cell-based, human
Method: Three independent studies in triplicate were conducted on HepG2 cells, and two independent studies in triplicate were conducted on primary human hepatocytes.
(§1) To assess the potential for ubrogepant to induce oxidative stress, assays to measure formation of reactive oxygen species (ROS) were conducted by Cyprotex. HepG2 cells were cultured in triplicate with ubrogepant for 6 or 24 hours at concentrations ranging from 0.01 – 150 μM, and ROS formation was assayed by DHE fluorescence assay. HepG2 cells have reduced metabolic activity relative to primary human hepatocytes.^3,4 Three independent studies in triplicate were conducted on HepG2 cells.
as §1, with “MK-3207” for “ubrogepant”, “ROS” for “reactive oxygen species (ROS)”, “μM” for “μM,”, “conducted.” for “conducted on HepG2 cells.”

[1] = test system: mitochondrial electron transport chain (ETC); assay: MITOsym/DILIsym fit of OCR data (ETC inhibition parameters); design: species or system human; settings: for DILIsym ETC inhibition constant: MITOsym value × scaling factor of 34.7
Method: MITOsym® parameters were then translated to DILIsym® parameters using a scaling factor calculated using classic exemplar compounds that perturb different pathways of mitochondrial respiration (e.g., rotenone for ETC inhibition, FCCP for uncoupling).
The parameter values for ubrogepant were determined by reproducing the cell count-corrected OCR data in MITOsym®, a mechanistic model of mitochondrial function in the in vitro setting. MITOsym parameters were then translated to DILIsym parameters using a scaling factor calculated using classic exemplar compounds that perturb different pathways of mitochondrial respiration (e.g., rotenone for ETC inhibition, FCCP for uncoupling).
Mitochondrial toxicity parameter values for MK-3207 were determined by reproducing the cell count-corrected OCR response to MK-3207 dosing in both MITOsym and DILIsym. The ETC inhibition coefficient from the MITOsym parameters was then translated to a DILIsym parameter using a scaling factor calculated using classic exemplar compounds that perturb different pathways of mitochondrial respiration (e.g., rotenone for ETC inhibition, FCCP for uncoupling), similar to ubrogepant. The maximum inhibition potency from the DILIsym fit was combined with this value in the final parameter set.

[2] = test system: Nrf2 oxidative stress and Nrf1 proteasomal stress pathways; assay: In vitro rat HEPATOPAC gene expression BA-LRA; assay type: cell-based; settings: 50 μM
[3] = target: T1, bile salt export pump (BSEP) (Homo sapiens, UniProt O95342); assay: HEPATOPAC taurocholic acid transport / bile acid excretion; assay type: cell-based
T1 construct: host or cells: human hepatocytes in HEPATOPAC micropatterned co-culture
Description: The human HEPATOPAC model was also used to measure the effects of test agents on transport of taurocholic acid as an indicator of altered bile salt export pump (BSEP) function ([Li et al., 2017]). Safe dose perspective is gained from comparing in vitro concentration response results to calculated liver inlet Cmax (maximum plasma concentration).

[4] = Compound solubility limit in transporter assay buffer; assay type: physicochemical; settings: read-out: upper limit of compound solubility
Method: (§2) To assess the functional impact of ubrogepant on the human ABC efflux transporters BSEP, MRP3, and MRP4, in vitro vesicular transport inhibition assays were conducted by Solvo Biotechnology (Szeged, Hungary). The ability of ubrogepant to inhibit the BSEP-mediated transport (and accumulation) of a probe substrate was tested at concentrations ranging from 0.04 – 30 μM, where the latter defined the upper limit of compound solubility in the BSEP assay buffer. For the MRP3 and MRP4 vesicle-based transporter assessments, ubrogepant concentrations of 0.1 to 70 μM were used. To assess the functional impact of ubrogepant on the human SLC (uptake) transporter NTCP, in vitro experiments were performed using HEK293 cells stably expressing NTCP. The ability of ubrogepant to inhibit NTCP-mediated uptake (and accumulation) of taurocholate was tested at concentrations ranging from 0.04 – 30 μM.
(§3) To assess the functional impact of MK-3207 on the human ABC efflux transporters BSEP, MRP3 and MRP4, in vitro vesicular transport inhibition assays were conducted by Solvo Biotechnology (Szeged, Hungary) and overseen by DSSI. BSEP transport was assessed in the presence of 0.5-30 µM MK-3207; MRP3 and MRP4 transport was assessed in the presence of 0.11-80 µM MK-3207. The upper limits of these ranges were determined by compound solubility in each assay buffer. NTCP transporter inhibition was assessed in NTCP-expressing HEK293 cells in the presence of 0.03 – 25 µM MK-3207.

[5] = test system: HEPATOPAC hepatocyte coculture; assay: HEPATOPAC urea synthesis (mitochondrial function); assay type: cell-based, rat; settings: 50 µM
Method: Effects of test agents on mitochondrial function were assessed from media collected in the same HEPATOPAC studies by monitoring urea synthesis rates ([Khetani et al., 2013]).

NTCP = target: T2, NTCP (Homo sapiens, UniProt Q14973); assay: NTCP uptake transporter inhibition assay; assay type: cell-based; settings: for inhibition of NTCP-mediated probe substrate transport: uptake transporter inhibition assay
T2 construct: expressed in transfected cells; host or cells: CHO (telcagepant); HEK293 (ubrogepant, MK-3207)
T2 sequence (Q14973 1-349): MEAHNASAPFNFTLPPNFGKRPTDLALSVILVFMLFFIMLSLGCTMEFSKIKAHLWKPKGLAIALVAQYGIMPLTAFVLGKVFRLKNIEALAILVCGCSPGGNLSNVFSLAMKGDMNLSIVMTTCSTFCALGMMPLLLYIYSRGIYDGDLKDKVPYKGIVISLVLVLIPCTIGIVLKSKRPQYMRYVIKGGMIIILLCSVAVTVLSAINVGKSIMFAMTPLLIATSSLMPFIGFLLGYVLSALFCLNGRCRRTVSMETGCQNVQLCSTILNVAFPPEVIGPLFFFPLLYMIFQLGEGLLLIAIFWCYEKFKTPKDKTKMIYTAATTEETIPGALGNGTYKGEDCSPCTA
Method: as §2, §3

dog = assay: Conventional nonclinical toxicology study, dog; settings: 1M dog
CGRP receptor = target: T3, CGRP receptor (Homo sapiens, UniProt O60894+Q16602); assay: CGRP-stimulated cAMP response in HEK293 cells; assay type: cell-based; settings: read-out: Potency IC50
T3 construct: expressed in transfected cells; host or cells: HEK293

HepG2 cell = HepG2 cell glucose/galactose shift model; assay type: cell-based, human
[6] = MRP3 and MRP4 assay buffer, aqueous buffer

T1 sequence (O95342 whole entry): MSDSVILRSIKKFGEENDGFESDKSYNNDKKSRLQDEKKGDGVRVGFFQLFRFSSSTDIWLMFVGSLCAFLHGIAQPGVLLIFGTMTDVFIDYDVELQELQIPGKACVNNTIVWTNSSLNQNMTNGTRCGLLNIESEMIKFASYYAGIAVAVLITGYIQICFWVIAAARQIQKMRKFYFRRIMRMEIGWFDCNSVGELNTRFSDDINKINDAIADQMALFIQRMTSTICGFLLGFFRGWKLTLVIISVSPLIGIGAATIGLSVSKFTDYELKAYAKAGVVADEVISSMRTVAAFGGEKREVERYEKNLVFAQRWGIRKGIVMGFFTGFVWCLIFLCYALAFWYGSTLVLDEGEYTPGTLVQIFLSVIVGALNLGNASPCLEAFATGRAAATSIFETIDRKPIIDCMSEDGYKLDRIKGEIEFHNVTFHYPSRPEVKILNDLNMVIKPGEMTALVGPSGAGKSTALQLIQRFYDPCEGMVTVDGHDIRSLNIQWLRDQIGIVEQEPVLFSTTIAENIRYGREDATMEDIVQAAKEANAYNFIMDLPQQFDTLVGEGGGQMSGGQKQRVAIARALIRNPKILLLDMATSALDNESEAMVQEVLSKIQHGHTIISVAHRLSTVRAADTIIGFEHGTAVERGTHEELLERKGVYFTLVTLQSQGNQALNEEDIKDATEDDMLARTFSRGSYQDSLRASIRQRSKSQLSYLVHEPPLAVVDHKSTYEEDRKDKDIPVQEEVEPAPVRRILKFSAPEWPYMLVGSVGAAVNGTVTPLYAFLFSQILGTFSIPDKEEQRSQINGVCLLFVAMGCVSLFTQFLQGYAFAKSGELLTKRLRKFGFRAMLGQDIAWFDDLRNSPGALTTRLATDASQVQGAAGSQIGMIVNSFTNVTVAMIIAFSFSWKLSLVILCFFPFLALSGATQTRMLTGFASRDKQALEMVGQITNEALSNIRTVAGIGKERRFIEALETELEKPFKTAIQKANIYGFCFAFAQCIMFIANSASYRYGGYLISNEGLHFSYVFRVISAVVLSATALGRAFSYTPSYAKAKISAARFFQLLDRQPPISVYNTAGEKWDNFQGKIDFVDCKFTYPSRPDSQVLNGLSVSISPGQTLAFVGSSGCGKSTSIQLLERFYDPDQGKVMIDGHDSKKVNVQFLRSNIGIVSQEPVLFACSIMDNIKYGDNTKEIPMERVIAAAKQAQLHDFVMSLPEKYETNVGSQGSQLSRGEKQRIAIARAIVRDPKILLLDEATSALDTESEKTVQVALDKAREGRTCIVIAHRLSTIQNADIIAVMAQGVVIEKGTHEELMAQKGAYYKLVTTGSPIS
T3 sequence (Q16602 23-461): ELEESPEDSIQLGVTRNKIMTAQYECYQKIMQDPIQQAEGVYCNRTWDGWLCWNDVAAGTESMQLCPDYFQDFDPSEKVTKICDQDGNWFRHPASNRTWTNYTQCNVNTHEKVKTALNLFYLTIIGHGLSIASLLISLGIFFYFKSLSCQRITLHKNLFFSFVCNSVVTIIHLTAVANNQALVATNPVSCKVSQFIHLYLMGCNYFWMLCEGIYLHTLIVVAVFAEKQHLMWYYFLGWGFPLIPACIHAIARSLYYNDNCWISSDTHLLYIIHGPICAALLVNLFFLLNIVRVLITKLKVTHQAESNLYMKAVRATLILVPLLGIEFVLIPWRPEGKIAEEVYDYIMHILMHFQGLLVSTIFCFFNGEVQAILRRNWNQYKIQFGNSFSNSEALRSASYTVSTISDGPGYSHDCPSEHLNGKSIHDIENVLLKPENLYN
T3 sequence (O60894 27-148): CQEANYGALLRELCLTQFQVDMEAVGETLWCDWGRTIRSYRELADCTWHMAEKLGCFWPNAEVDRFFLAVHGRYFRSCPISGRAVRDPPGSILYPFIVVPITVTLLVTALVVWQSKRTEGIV

Compound | induction of oxidative stress (ROS formation) (HepG2 cells; HepG2, 6-hour incubation) | induction of oxidative stress (ROS formation) (HepG2 cells; HepG2, 24-hour incubation) | BA-LRA score [2] | solubility [4, 6] [µM] | effect on urea (mitochondrial function) [5] | inhibition of NTCP-mediated probe substrate transport (NTCP) | IC50 (CGRP receptor) [nM] | mitochondrial toxicity potential (HepG2 cell) | DILIsym ETC inhibition constant [1] [mol/mL] | also measured
O=C(CN1C(=O)C2(CCCC2)NC[C@H]1c1cc(F)cc(F)c1)Nc1ccc2c(c1)C[C@@]1(C2)C(=O)Nc2ncccc21 [MK-3207] | not evident | modest induction of oxidative stress | > 0.2 | 80 (≈ 44.6 µg/mL) | No effect on urea | No inhibition was observed | 0.12 | did not raise mitochondrial safety concerns |  | maximal inhibition value (ETC) ([1]; DILIsym fit of HepG2 OCR data): 0.35; ETC inhibition coefficient ([1]; MITOsym constant translated into DILIsym, 1-hour and 24-hour HepG2 OCR data): 0.347 µM; effect on bile acid excretion ([3]; 4.4× estimated unbound liver Cmax (highest testable concentration, solubility)): no significant impact was observed on biliary excretion; solubility ([4]; BSEP assay buffer): 30 µM (≈ 16.7 µg/mL); Pivotal conventional nonclinical toxicology study liver findings (dog): slight periportal vacuolation with < 4× ALT/AST associated with excessive body weight loss; exposure margin (dog): 17 ×
O=C(N[C@@H]1CC[C@@H](c2cccc(F)c2F)CN(CC(F)(F)F)C1=O)N1CCC(n2c(=O)[nH]c3ncccc32)CC1 [Telcagepant] |  | modest induction of oxidative stress | > 0.2 |  | No effect on urea | inhibited |  | did not raise mitochondrial safety concerns | 1.74e-05 | MITOsym ETC inhibition constant ([1]; fit of 1 hour HepG2 OCR data): 0.5 mM; effect on bile acid excretion ([3]; 10.7× estimated unbound liver Cmax): No effect on bile acid excretion; solubility ([4]; aqueous buffer, BSEP, MRP3, MRP4 vesicular transport assays): 20 µM (≈ 11.3 µg/mL); NTCP inhibition (NTCP; CHO cells expressing NTCP, up to 25 μM): > 50%; IC50 (NTCP; taurocholate uptake, read-out: NTCP estimated IC50): 19400 nM
C[C@@H]1[C@H](c2ccccc2)C[C@H](NC(=O)c2cnc3c(c2)C[C@@]2(C3)C(=O)Nc3ncccc32)C(=O)N1CC(F)(F)F [Ubrogepant] | not evident | modest induction of oxidative stress |  | 70 (≈ 38.5 µg/mL) |  |  | 0.08 |  | 4.72e-07 | MITOsym ETC inhibition constant ([1]; fit of 24-hour HepG2 OCR data): 0.0136 mM; solubility ([4]; BSEP assay buffer, aqueous buffer): 30 µM (≈ 16.5 µg/mL)
